Experimental data from ChEMBL document CHEMBL5528085, “Subtle Structural Changes across the Boundary between A2AR/A2BR Dual Antagonism and A2BR Antagonism: A Novel Class of 2-Aminopyrimidine-Based Derivatives” (J Med Chem, 2024).
Calls of active or inactive are those of the source. The rule behind the calls is not given here.

Tests used:
Adenosine receptor A2a [1] = target: T1, Adenosine receptor A2a (Homo sapiens, UniProt P29274); test: Antagonist activity at human adenosine 2A receptor overexpressed in HEK293 cells preincubated for 0.5 hrs followed by NECA stimulation by GloSensor cAMP assay; assay type: functional, cell-based
T1 sequence (P29274 whole entry): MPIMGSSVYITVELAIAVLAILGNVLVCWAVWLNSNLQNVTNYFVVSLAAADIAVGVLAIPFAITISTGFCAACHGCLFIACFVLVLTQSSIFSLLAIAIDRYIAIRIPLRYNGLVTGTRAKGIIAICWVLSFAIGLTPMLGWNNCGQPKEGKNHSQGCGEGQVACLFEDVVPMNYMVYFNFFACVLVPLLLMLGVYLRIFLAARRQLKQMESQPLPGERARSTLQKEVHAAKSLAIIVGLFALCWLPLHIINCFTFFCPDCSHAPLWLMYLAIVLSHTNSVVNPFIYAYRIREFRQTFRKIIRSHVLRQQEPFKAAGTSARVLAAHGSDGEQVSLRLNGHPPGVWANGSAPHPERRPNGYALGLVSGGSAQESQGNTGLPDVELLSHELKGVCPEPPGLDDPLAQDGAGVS

Adenosine receptor A2b [2] = target: T2, Adenosine receptor A2b (Homo sapiens, UniProt P29275); test: Antagonist activity at human adenosine 2B receptor overexpressed in HEK293 cells preincubated for 0.5 hrs followed by NECA stimulation by GloSensor cAMP assay; assay type: functional, cell-based
T2 sequence (P29275 whole entry): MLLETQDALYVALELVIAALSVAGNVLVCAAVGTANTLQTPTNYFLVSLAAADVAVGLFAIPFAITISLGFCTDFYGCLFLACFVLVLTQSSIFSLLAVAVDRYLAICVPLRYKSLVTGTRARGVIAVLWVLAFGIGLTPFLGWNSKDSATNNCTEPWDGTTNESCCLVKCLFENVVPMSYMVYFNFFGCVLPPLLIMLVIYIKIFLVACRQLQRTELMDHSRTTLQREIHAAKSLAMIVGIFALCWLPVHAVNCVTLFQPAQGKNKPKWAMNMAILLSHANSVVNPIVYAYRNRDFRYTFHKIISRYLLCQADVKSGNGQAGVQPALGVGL

Homo sapiens = species on record: Homo sapiens; test: Selectivity ratio of IC50 for antagonist activity at human adenosine 2A receptor overexpressed in HEK293 cells to IC50 for antagonist activity at human adenosine 2B receptor overexpressed in HEK293 cells; assay type: cell-based
Adenosine receptor A1 = target: T3, Adenosine receptor A1 (Homo sapiens, UniProt P30542); test: Antagonist activity at human Adenosine A1 receptor overexpressed in HEK293 cells preincubated for 0.5 hrs followed by NECA stimulation by GloSensor cAMP assay; assay type: functional, cell-based
T3 sequence (P30542 whole entry): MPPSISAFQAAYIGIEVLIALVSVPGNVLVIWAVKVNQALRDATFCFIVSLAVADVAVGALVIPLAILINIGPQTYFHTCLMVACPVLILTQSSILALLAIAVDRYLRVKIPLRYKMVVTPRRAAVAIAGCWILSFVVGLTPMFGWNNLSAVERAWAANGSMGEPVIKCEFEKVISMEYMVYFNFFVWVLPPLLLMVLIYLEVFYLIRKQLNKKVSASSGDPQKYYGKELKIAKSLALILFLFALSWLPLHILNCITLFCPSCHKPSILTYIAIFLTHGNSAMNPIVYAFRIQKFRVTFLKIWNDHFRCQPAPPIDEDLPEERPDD

Adenosine receptor A3 = target: T4, Adenosine receptor A3 (Homo sapiens, UniProt P0DMS8); test: Antagonist activity at human Adenosine A3 receptor overexpressed in HEK293 cells preincubated for 0.5 hrs followed by NECA stimulation by GloSensor cAMP assay; assay type: functional, cell-based
T4 sequence (P0DMS8 whole entry): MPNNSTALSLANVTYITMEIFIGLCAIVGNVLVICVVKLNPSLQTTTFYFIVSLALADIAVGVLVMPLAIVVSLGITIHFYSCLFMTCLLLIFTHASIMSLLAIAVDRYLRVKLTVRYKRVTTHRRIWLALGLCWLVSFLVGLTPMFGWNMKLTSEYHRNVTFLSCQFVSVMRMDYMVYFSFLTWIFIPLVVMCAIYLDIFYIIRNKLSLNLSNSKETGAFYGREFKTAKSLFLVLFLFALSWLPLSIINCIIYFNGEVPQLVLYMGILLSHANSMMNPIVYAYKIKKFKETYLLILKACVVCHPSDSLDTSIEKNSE

Adenosine receptor A2a [3] = target: T1, Adenosine receptor A2a; test: (§1) Antagonist activity at human adenosine 2A receptor expressed in HEK293 cells co-expressing CRE-luciferase plasmid assessed as inhibition of NECA-stimulated luciferase expression preincubated with compound for 0.5 hrs followed by NECA stimulation and measured after 4 hrs by luciferase based CRE reporter assay; assay type: functional, cell-based
Adenosine receptor A2b [4] = target: T2, Adenosine receptor A2b; test: as §1, with “2B” for “2A”; assay type: functional, cell-based
Adenosine receptor A2a [5] = target: T1, Adenosine receptor A2a; test: Antagonist activity at human adenosine 2A receptor overexpressed in HEK293 cells preincubated for 0.5 hrs followed by NECA stimulation by Schild plot based GloSensor cAMP assay; assay type: functional, cell-based; details: read-out: pA2 (converted)
Adenosine receptor A2b [6] = target: T2, Adenosine receptor A2b; test: Antagonist activity at human adenosine 2B receptor overexpressed in HEK293 cells preincubated for 0.5 hrs followed by NECA stimulation by Schild plot based GloSensor cAMP assay; assay type: functional, cell-based; details: read-out: pA2 (converted)
[7] = Downregulation of NECA-induced PD-1 expression in human Jurkat T cells at 0.1 to 10 uM incubated for 5 hrs in presence of PMA and ionomycin by q-PCR analysis; assay type: functional; details: dose 0.1-10 µM
[8] = Downregulation of NECA-induced TIM-3 expression in human Jurkat T cells at 0.1 to 10 uM incubated for 5 hrs in presence of PMA and ionomycin by q-PCR analysis; assay type: functional; details: dose 0.1-10 µM
MC38-OVA = test: Induction of T-cell mediated cell death in mouse MC38-OVA cells co-cultured with OT-1 CTL assessed as reversal of NECA-induced impairment in OT-I CTL mediated cell killing at 10 uM incubated for 48 hrs by calcein AM dye based fluorescence microscopic analysis; assay type: functional

Row | IC50 (Adenosine receptor A2a [1]) | IC50 (Adenosine receptor A2b [2]) | SMILES | Ratio IC50 (Homo sapiens) | further results
1 | 34.8 nM | 131 nM | Cc1c(C#N)cccc1-c1cc(-c2cn(Cc3csc4ccccc34)nn2)nc(N)n1 | 0.3 | –
2 | 133 nM | 27.6 nM | COc1ccc2c(Cn3cc(-c4cc(-c5cccc(C#N)c5C)nc(N)n4)nn3)c[nH]c2c1 | 4.8 | –
3 | 7860 nM | > 100000 nM | Cc1c(C#N)cccc1-c1cc(-c2cn(Cc3cccc4cc[nH]c34)nn2)nc(N)n1 | – | –
4 | – | 71.6 nM | Cc1c(C#N)cccc1-c1cc(-c2cn(Cc3c[nH]c4cc(OC5CCCC5)ccc34)nn2)nc(N)n1 | – | –
5 | 1910 nM | 11.1 nM | Cc1c(C#N)cccc1-c1cc(-c2cn(Cc3c[nH]c4cnccc34)nn2)nc(N)n1 | 172 | –
6 | – | 654 nM | Cc1c(C#N)cccc1-c1cc(-c2cn(Cc3cc4ccccc4[nH]3)nn2)nc(N)n1 | – | –
7 | 120 nM | 13.7 nM | Cc1c(C#N)cccc1-c1cc(-c2cn(Cc3c[nH]c4cc(F)ccc34)nn2)nc(N)n1 | 8.8 | –
8 | 103 nM | 43.4 nM | Cc1ccc2[nH]cc(Cn3cc(-c4cc(-c5cccc(C#N)c5C)nc(N)n4)nn3)c2c1 | 2.4 | –

The next lines start with the compound.

Row | SMILES | IC50 (Adenosine receptor A2a [1]) | IC50 (Adenosine receptor A2b [2]) | Ratio IC50 (Homo sapiens) | further results
9 | Cc1c(C#N)cccc1-c1cc(-c2cn(Cc3c[nH]c4ccc(C#N)cc34)nn2)nc(N)n1 | 11.2 nM | 6.4 nM | 1.8 | IC50 (Adenosine receptor A1): > 1000 nM; IC50 (Adenosine receptor A3): > 1000 nM; IC50 (Adenosine receptor A2a [3]): 7.3 nM; IC50 (Adenosine receptor A2b [4]): 8.1 nM; Kb (Adenosine receptor A2a [5]): 1.62 nM; Kb (Adenosine receptor A2b [6]): 1.32 nM; Activity [7]: ~100%; Activity [8]: ~100%; Activity (MC38-OVA): Active
10 | Cc1c(C#N)cccc1-c1cc(-c2cn(Cc3cccc4[nH]ccc34)nn2)nc(N)n1 | 5820 nM | > 100000 nM | – | –
11 | Cc1ccc2c(Cn3cc(-c4cc(-c5cccc(C#N)c5C)nc(N)n4)nn3)c[nH]c2c1 | 324 nM | 48.6 nM | 6.7 | –
12 | Cc1c(C#N)cccc1-c1cc(-c2cn(Cc3c[nH]c4cc(S(C)(=O)=O)ccc34)nn2)nc(N)n1 | 431 nM | 3.4 nM | 127 | –
13 | Cc1c(C#N)cccc1-c1cc(-c2cn(Cc3n[nH]c4ccccc34)nn2)nc(N)n1 | 129 nM | 41.7 nM | 3.1 | –
14 | Cc1c(C#N)cccc1-c1cc(-c2cn(Cc3c[nH]c4ccc(F)cc34)nn2)nc(N)n1 | 63.3 nM | 14.3 nM | 4.4 | –
15 | Cc1c(C#N)cccc1-c1cc(-c2cn(Cc3c[nH]c4ccc(OC(C)C)cc34)nn2)nc(N)n1 | 69.9 nM | 103 nM | 0.7 | –
16 | Cc1c(C#N)cccc1-c1cc(-c2cn(Cc3c[nH]c4ncccc34)nn2)nc(N)n1 | 2260 nM | 215 nM | 10.5 | –
17 | Cc1c(C#N)cccc1-c1cc(-c2cn(Cc3c[nH]c4cc(C#N)ccc34)nn2)nc(N)n1 | 242 nM | 2.6 nM | 93.2 | –
18 | Cc1c(C#N)cccc1-c1cc(-c2cn(Cc3cn(C)c4ccccc34)nn2)nc(N)n1 | > 100000 nM | > 100000 nM | – | –
19 | Cc1c(C#N)cccc1-c1cc(-c2cn(Cc3c[nH]c4ccc(OC5CCCC5)cc34)nn2)nc(N)n1 | 97.4 nM | 349 nM | 0.3 | –
